Measured values published in patent US20260055152A1, “INTRACELLULAR CX3CL1 DOMAIN PEPTIDES AND USES THEREOF” (University of Connecticut, priority 2022, published 2026).

Tested on: Akt
Assay: Akt inhibition assay in cultured N2A cells
Assay type: cell-based, mouse

NC1(c2ccc(-c3nc4ccn5c(=O)[nH]nc5c4cc3-c3ccccc3)cc2)CCC1 [MK2206]
phosphorylation of GSK3β and Foxo3 (N2A cells treated with 2 μM Tet34 or controls 24 hrs, then 2 μM MK2206 3hrs): diminish | Tet34 induced effects on Foxo3 phosphorylation (N2A cultures with Tet-CX3CL1-ICD peptides in presence of MK2206): abolished
